According to US5075287A, “Muramyl peptide derivatives and immunoregulating compositions containing them” (priority 1989, dated 1991):
Read-outs that look alike come from different tables or passages of the source.

Assays:
[1] = tested on: hepatitis B virus surface antigen (HBs); experiment: Hepatitis-vaccine enhancing activity (adjuvant activity): anti-HBs IgG in mouse serum by ELISA; format: in vivo, female CDF1 mice; details: Experiment 1, 5000-fold dilution
Procedure, shortened: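 Female CDF1 mice (n=7) given 0.2 ml i.p. of compound in lipid microspheres (1 mg/ml) mixed 1:1 with HBs antigen (50 μg/ml), boosted identically at 3 weeks. Sera from weekly fundus bleeds before and after boost. Anti-HBs IgG measured by ELISA.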

[2] = tested on: L-1210 mouse leukemia cells; experiment: Activation of macrophages (growth inhibition of tumor cells by intraperitoneal macrophages of treated mice, MTT assay); format: cell-based; details: macrophages taken 3 days after i.p. 0.2 ml of 500 μg/ml, macrophage:L-1210 20:1, 72 hours
Protocol: A compound of the present invention was dissolved in lipidmicrosphere to obtain a solution in a concentration of 500μg/ml, and 0.2 ml of such solution was intraperitoneally administered to each mouse in one group consisting of seven female CDF1 mice. Intraperitoneal macrophages obtained three days after the administration and L-1210 mouse leukemia cells were mixed in the ratio of cell numbers of 20:1, respectively. Two hundred μl of the mixture was placed in each well of one sheet of 96 well microtiter plate. After 72 hours, the increase of the cell number in each well was determined by a MTT assay method. The ratio of the cell number for the mixture of the L-1210 cells and the macrophage relative to the cell number for the L-1210 cells only(growth inhibitory ratio) was determined, and the results are shown in Table 3.

[3] = tested on: influenza HA vaccine (B/Nagasaki/1/87 strain); format: in vivo, female CDF1 mice; details: Experiment 1, 5000-fold dilution
[4] = 1 W after i.p. administration, compound in lipidmicrosphere + HBs
[5] = 4 W (after secondary stimulation at 3 weeks)
[6] = 5 W (after secondary stimulation at 3 weeks)
[7] = 1 W after i.p. administration, compound in lipidmicrosphere + HA vaccine

| Structure (SMILES) | Anti-HBs IgG antibody level in serum (ELISA absorbance at 415 nm) [1, 4] [O.D 415 nm] | Anti-HBs IgG antibody level in serum (ELISA absorbance at 415 nm) ([1]; 2 W) [O.D 415 nm] | Anti-HBs IgG antibody level in serum (ELISA absorbance at 415 nm) ([1]; 3 W) [O.D 415 nm] | Anti-HBs IgG antibody level in serum (ELISA absorbance at 415 nm) [1, 5] [O.D 415 nm] | Anti-HBs IgG antibody level in serum (ELISA absorbance at 415 nm) [1, 6] [O.D 415 nm] | Growth inhibitory ratio of L-1210 mouse leukemia cells [2] [%] | Anti HA serum antigen value (average value ± S.D.) [3, 7] [O.D 415 nm] | Anti HA serum antigen value (average value ± S.D.) ([3]; 2 W) [O.D 415 nm] | Anti HA serum antigen value (average value ± S.D.) ([3]; 3 W) [O.D 415 nm] | Anti HA serum antigen value (average value ± S.D.) [3, 5] [O.D 415 nm] | Anti HA serum antigen value (average value ± S.D.) [3, 6] [O.D 415 nm] |
| --- | --- | --- | --- | --- | --- | --- | --- | --- | --- | --- | --- |
| CCCCCCCCCCCCCC(=O)O[C@H](CCCCCCCCCCC)CC(=O)O[C@H]1O[C@H](COC(=O)CCCCCCCCC)[C@@H](O)[C@H](O[C@H](C)C(=O)N[C@@H](C)C(=O)N[C@H](CCC(=O)OC)C(N)=O)[C@H]1NC(C)=O [Example 11, N-[2-0-{2-Acetamido-2,3-dideoxy-6-0-decanoyl-1-0((3R)-3-tetradecanoyloxytetradecanoyl)-α-D-glucopyranos-3-yl}-D-lactoyl]-L-alanyl-D-isoglutaminemethylester] | 0.010 ± 0.002 | 0.083 ± 0.002 | 0.124 ± 0.003 | 0.602 ± 0.009 | 0.716 ± 0.020 | 59.7 | 0 | 0.073 ± 0.000 | 0.160 ± 0.005 | 1.059 ± 0.016 | 1.050 ± 0.003 |
| CCCCCCCCCCCCCC(=O)OC[C@H]1O[C@H](OC(=O)C[C@@H](CCCCCCCCCCC)OC(=O)CCCCCCCCCCCCC)[C@H](NC(C)=O)[C@@H](O[C@H](C)C(=O)N[C@@H](C)C(=O)N[C@H](CCC(=O)OC)C(N)=O)[C@@H]1O [Example 12, N-[2-0-{2-Acetamido-2,3-dideoxy-6-0-tetradecanoyl-1-0-((3R)-3-tetradecanoyloxytetradecanoyl)-α-D-glucopyranos-3yl}-D-lactoyl]-L-alanyl-D-isoglutamine methylester] | 0.007 ± 0.003 | 0.109 ± 0.002 | 0.111 ± 0.001 | 0.608 ± 0.021 | 0.695 ± 0.021 | 79.0 | 0 | 0.105 ± 0.004 | 0.176 ± 0.002 | 1.039 ± 0.015 | 1.050 ± 0.008 |
| CCCCCCCCCCCCCCCCCC(=O)OC[C@H]1O[C@H](OC(=O)C[C@@H](CCCCCCCCCCC)OC(=O)CCCCCCCCCCCCC)[C@H](NC(C)=O)[C@@H](O[C@H](C)C(=O)N[C@@H](C)C(=O)N[C@H](CCC(=O)OC)C(N)=O)[C@@H]1O [Example 13, N-[2-0-{2-Acetamido-2,3-dideoxy-6-0-octadecanoyl-1-0-((3R)-3-tetradecanoyloxytetradecanoyl)-α-D-glucopyranos-3-yl}-D-lactoyl]-L-alanyl-D-isoglutamine methylester] | 0 | 0.081 ± 0.003 | 0.126 ± 0.003 | 0.635 ± 0.011 | 0.742 ± 0.016 | 39.7 | 0 | 0.088 ± 0.004 | 0.140 ± 0.001 | 0.868 ± 0.010 | 0.824 ± 0.002 |
| CCCCCCCCCCCCCC(=O)O[C@H](CCCCCCCCCCC)CC(=O)S[C@@H]1O[C@H](COC(=O)CCCCCCCCC)[C@@H](O)[C@H](O[C@H](C)C(=O)N[C@@H](C)C(=O)N[C@H](CCC(=O)OC)C(N)=O)[C@H]1NC(C)=O [Example 14, N-[2-0-{2-Acetamido-2,3-dideoxy-6-0-decanoyl-1-S-((3R)-R-tetradecanoyloxytetradecanoyl)-1-thio-β-D-glucopyranos-3yl}-D-lactoyl]-L-alanyl-D-isoglutamine methylester] | 0 | 0.071 ± 0.000 | 0.104 ± 0.003 | 0.784 ± 0.022 | 0.846 ± 0.024 | 96.4 | 0 | 0.110 ± 0.003 | 0.186 ± 0.007 | 0.974 ± 0.006 | 0.954 ± 0.002 |
| CCCCCCCCCCCCCC(=O)OC[C@H]1O[C@@H](SC(=O)C[C@@H](CCCCCCCCCCC)OC(=O)CCCCCCCCCCCCC)[C@H](NC(C)=O)[C@@H](O[C@H](C)C(=O)N[C@@H](C)C(=O)N[C@H](CCC(=O)OC)C(N)=O)[C@@H]1O [Example 15] | 0 | 0.085 ± 0.002 | 0.129 ± 0.001 | 0.788 ± 0.008 | 0.905 ± 0.020 | 87.5 | 0.007 ± 0.000 | 0.119 ± 0.005 | 0.218 ± 0.006 | 1.249 ± 0.013 | 1.262 ± 0.017 |
| CCCCCCCCCCCCCCCCCC(=O)OC[C@H]1O[C@@H](SC(=O)C[C@@H](CCCCCCCCCCC)OC(=O)CCCCCCCCCCCCC)[C@H](NC(C)=O)[C@@H](O[C@H](C)C(=O)N[C@@H](C)C(=O)N[C@H](CCC(=O)OC)C(N)=O)[C@@H]1O [Example 16, N-[2-0-{2-Acetamido-2,3-dideoxy-6-0-octadecanoyl-1-S-((3R)-3-tetradecanoyloxytetradecanoyl)-1-thio-β-D-glucopyranos-3-yl}-D-lactoyl]-L-alanyl-D-isoglutamine methylester] | 0 | 0.079 ± 0.004 | 0.103 ± 0.004 | 0.850 ± 0.008 | 0.903 ± 0.021 | 76.3 | 0.001 ± 0.001 | 0.145 ± 0.004 | 0.257 ± 0.010 | 1.251 ± 0.010 | 1.262 ± 0.026 |
